Read-outs that look alike come from different tables or passages of the source.

The EC50 is the midpoint of the concentration-response curve. As usually defined, the IC50 is the concentration at which inhibition is half-maximal. The term Ki denotes a dissociation constant, usually derived from enzyme kinetics or from competition with a known ligand. Read a low Ki as a stronger hold on the target. The inhibition is the change of the read-out against control, counted positive when it falls.

Series [1] deals with T1, ADRB1 (Homo sapiens (Human), UniProt P08588). Put plainly: cAMP assay (homogenous time-resolved fluorescence) in HEK-293 cells stably expressing human recombinant ADRB1. The class given is cell-based. The following applies: for Emax: HEK293, 0.5 h, percent efficacy compared to the maximum response achieved with isoproterenol, read-out: cAMP pathway % Iso max. The procedure: Pharmacological effects of compounds at the cAMP pathway mediated by ADRB1 are evaluated by measuring cAMP production using the homogenous time-resolved fluorescence detection method with HEK-293 cells stably expressing human recombinant ADRB1. Briefly, cells are suspended in HBSS buffer completed with 20 mM HEPES (pH 7.4) and 500 μM IBMX (3-isobutyl-1-methylxanthine) and distributed at a density of 3×10^3 cells/well. […] The results are expressed as a percent of the maximum efficacy achieved with isoproterenol. Pharmacological effects of compounds at the cAMP pathway mediated by ADRB2 and ADRB3 are measured as described above using CHO cells stably expressing human recombinant ADRB2 and human SK-N-MC neurotumor cells endogenously expressing ADRB3, respectively.
After 30 minute incubation with compounds, the cells are lysed and the fluorescence donor (Europium-chelated-labeled cAMP tracer; Eu-cAMP tracer) and fluorescence acceptor (cAMP-specific monoclonal antibodies labeled with the ULight™ dye) are added. […] The results are expressed as a percent of the control response to 10 μM isoproterenol. For subtype selectivity determination, same procedure is performed using Chinese hamster ovary (CHO) cells stably expressing human β2-adrenergic receptors or SK-N-MC human neuroblastoma cell line expressing β3-adrenergic receptors.
ADRB1 EC50 from functional assay (nM)^a, Determined using the homogenous time-resolved fluorescence detection method with HEK-293 cells stably expressing human recombinant ADRB1. ADRB2 IC50 from binding assay(nM)^b, Determined using the Tag-lite Adrenoceptor Beta2 receptor ligand binding assay.
In general terms: Changes in cAMP serve as a functional read-out for many G protein-coupled receptors.

Series [2] addresses ADRB2 (Homo sapiens (Human), UniProt P07550). Put plainly: Tag-lite Adrenoceptor Beta2 receptor ligand binding assay. The note with it: Table 7; read-out: ADRB2 IC50 from binding assay. Here is the method: The subtype selective activity of some compounds of interest was assessed for adrenergic receptor beta 1 (ADRB1) versus adrenergic receptor beta 2 (ADRB2). ADRB1 EC50 from functional assay (nM)^a, Determined using the homogenous time-resolved fluorescence detection method with HEK-293 cells stably expressing human recombinant ADRB1. ADRB2 IC50 from binding assay(nM)^b, Determined using the Tag-lite Adrenoceptor Beta2 receptor ligand binding assay.

Series [3] has as its system LPS-induced TNF-α production in primary microglia. The series can be described thus: In vitro primary microglia TNF-α assay (LPS stimulation, ELISA). The class given is cell-based, rat. The following applies: 4 h. The text has this: Mixed glial cells are obtained from the cerebral cortex of Sprague Dawley rat pups at postnatal days 1-3. Briefly, neonates are euthanized by decapitation and their brain tissues are collected for isolation of cortex. The isolated cortex was then trypsinized, triturated, and placed onto tissue culture flasks in DMEM supplemented with 10% fetal bovine serum and 1% Penicillin/Streptomycin. After 10 days in vitro, microglia are harvested by gentle shaking of the growth flask, plated in a 96 well plate at a density of 30,000 cells/well, and incubated at 37° C. overnight. […] Following the 4 h incubation, cell media is collected and the concentration of TNF-α is measured by ELISA (Invitrogen, KRC3011) according to the manufacturer's instruction.
The effects of selected compounds on cellular inflammatory response to LPS are determined in primary microglia extracted from a rat. Briefly, mixed glial cells are obtained from the cerebral cortex of Sprague Dawley rat pups at postnatal days 1-3 and cultured in DMEM supplemented with 10% fetal bovine serum. After 7 days in vitro, microglia are harvested by gentle shaking of the growth flask and plated in a 96 well plate at the density of 3×10^4 cells/well. The cells are used following day. Effects of compounds on LPS-induced TNFα production are determined by incubating cells with LPS along with or without test compounds for 4 hours. Following the 4 hour incubation, cell media are collected and concentration of TNFα was measured by EUSA.
On the technique in general: An ELISA detects its analyte on a solid surface through an enzyme-linked reagent.

The test system of series [4] is LPS-induced TNF-α response. Put plainly: In vivo LPS assay. Set-up: species or system C57BI/6J mice. The following applies: mice, 3 mg/kg 15 min prior to LPS, 90 min post-LPS. The procedure:
Amplification is performed using StepOnePlus (Applied Biosystems).
Following injections, mice are single-housed. At 90 min post-LPS/saline, mice are deeply anesthetized with isoflurane and blood is collected from the right ventricle via cardiac puncture (23 g needle) into lithium heparin-containing vials (BD microtainer plasma tubes). Plasma is separated by centrifugation (11,000 rpm for 3 minutes) within 30 min of collection and stored at −80° C. until analysis. The concentration of TNF-α in the collected plasma is measured by ELISA (Invitrogen, KMC3012) according to the manufacturer's instruction.

Series [5] has as its target panel of CNS relevant targets, including G-protein coupled receptor and transporters. Put plainly: Screen against a panel of CNS relevant targets (off-target affinity). The class given is binding. The following applies: broad range of neurotransmitter transporters, ion channels and other CNS proteins. The text has this:
From a drug development perspective, characterizing the off-target effects of lead compounds is an important issue, as interactions with off-target molecules may lead to undesirable side effects. Thus we screened xamoterol (S) and the key compound compound 43 against a panel of CNS relevant targets, including G-protein coupled receptor and transporters. […].

The target of series [6] is T1, ADRB1. The series can be described thus: β-arrestin assay (PathHunter enzyme fragment complementation, CHO-K1-ADRB1 cells). The class given is cell-based. The following applies: for concentration-dependent response at the β-arrestin pathway: up to 30 μM; for β-arrestin pathway % Iso max: percent efficacy compared to the maximum response achieved with isoproterenol. Here is the method:
Pharmacological activity of compounds in the β-arrestin pathway mediated by ADRB1 are evaluated using an enzyme fragment complementation method with a β-galactosidase functional reporter. An engineered CHO-K1-ADRB1 PathHunter cell line (DiscoveRx) is used in the assay. In this cell line, enzyme acceptor (β-galactosidase fragment) is fused to β-arrestin and enzyme donor (β-galactosidase fragment) is fused to the ADRB1. Thus, activation of the ADRB1 stimulates binding of β-arrestin to the ProLink-tagged ADRB1 and forces complementation of the two enzyme fragments, resulting in the formation of an active β-galactosidase enzyme. Briefly, CHO-K1-ADRB1 PathHunter cell lines are plated in a total volume of 20 μL cell plating reagent (DiscoveRx, 93-0563R0A) at a density of 2,500 cells/well into 384 well microplates and incubated overnight at 37° C. in 5% CO2. […] Chemiluminescent signal is then read with a PerkinElmer Envision™ instrument. The results are expressed as a percent of the maximum efficacy achieved with isoproterenol.
Effects of compounds on β-arrestin signaling pathways are determined using CHO cells stably expressing human β1-adrenergic receptors or human β2-adrenergic receptors with PathHunter® β-Arrestin GPCR assay system (DiscoveRx). In this system, adrenergic receptor is fused in frame with the small enzyme fragment ProLink™ and co-expressed in cell stably expressing at fusion protein of β-arrestin and the larger, N-terminal deletion mutant of β-galactosidase enzyme. Activation of the adrenergic receptor stimulates binding of β-arrestin to the ProLink-tagged receptor and forces complementation of the two enzyme fragments, resulting in the formation of an active β-gal enzyme. This interaction leads to an increase in enzyme activity that can be measured using chemiluminescent detection reagents. The effects of compounds on β-arrestin signaling pathways are determined 90 minutes after incubating the cells with the test compounds.

Series [7] concerns C57BI/6J female mice. The series can be described thus: 24 day administration, lung and heart weight and fibrosis. Format: in vivo. The note with it: 10 mg/kg for 24 days. Here is the method:
C57BI/6J female mice were administered with isoproterenol, KSN01-01-15, or KSN01-01-18 at 10 mg/kg for 24 days. After 24 days of treatment, mice were sacrificed, and lung and heart weight were measured. Hearts were then fixed in 10% formalin, and stained with Masson trichrome for evaluation of fibrosis.

Setting [8] is: Table 7, read-out: ADRB1 EC50 from functional assay.
The mark [9] stands for this setting: Table 3, read-out: cAMP pathway ADRB1 EC50.
[10] abbreviates: Table 4, read-out: cAMP pathway ADRB1 EC50.
The mark [11] stands for this setting: Table 4, read-out: β-arrestin pathway ADRB1 EC50.

Sequence of ADRB2 (P07550 whole entry): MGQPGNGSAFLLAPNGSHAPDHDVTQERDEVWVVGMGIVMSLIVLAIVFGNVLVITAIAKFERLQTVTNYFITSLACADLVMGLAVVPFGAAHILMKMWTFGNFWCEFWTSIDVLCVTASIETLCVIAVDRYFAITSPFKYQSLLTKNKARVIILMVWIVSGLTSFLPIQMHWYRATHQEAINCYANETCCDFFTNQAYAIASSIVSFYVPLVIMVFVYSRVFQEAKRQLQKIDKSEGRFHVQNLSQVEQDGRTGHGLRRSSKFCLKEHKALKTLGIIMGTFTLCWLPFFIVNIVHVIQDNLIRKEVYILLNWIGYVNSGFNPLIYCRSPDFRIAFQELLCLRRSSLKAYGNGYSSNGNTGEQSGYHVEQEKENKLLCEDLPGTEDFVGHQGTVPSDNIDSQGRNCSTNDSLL
T1 sequence (P08588 whole entry): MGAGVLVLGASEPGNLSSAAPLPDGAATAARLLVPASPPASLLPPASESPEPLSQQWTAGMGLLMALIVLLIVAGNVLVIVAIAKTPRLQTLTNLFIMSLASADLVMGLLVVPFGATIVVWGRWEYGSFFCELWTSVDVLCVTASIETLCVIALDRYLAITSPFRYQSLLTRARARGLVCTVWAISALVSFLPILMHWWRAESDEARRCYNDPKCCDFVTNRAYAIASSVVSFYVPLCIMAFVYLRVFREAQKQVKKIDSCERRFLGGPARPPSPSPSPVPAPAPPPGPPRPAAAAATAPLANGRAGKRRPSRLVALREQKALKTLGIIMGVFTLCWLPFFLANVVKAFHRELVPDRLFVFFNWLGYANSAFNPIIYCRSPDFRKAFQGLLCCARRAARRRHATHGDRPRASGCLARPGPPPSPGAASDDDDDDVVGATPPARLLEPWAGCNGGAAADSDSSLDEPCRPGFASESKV

Regarding `Cc1n[nH]c2cccc(OC[C@@H](O)CNC(C)(C)COc3ccccn3)c12` [Compound 86], the EC50 in series [1] (setting [8]) was 44.7 nM. The IC50 in series [2] stood at 0.144 nM.
For `O=C(NCCNC[C@H](O)COc1cc(F)c(O)cc1F)N1CCOCC1` [Compound 28], the Emax in series [1] (Table 3) was determined as 21.5 ± 0.5%. In addition, the EC50 in series [1] (setting [9]) is 1 to 10 nM.
Take `COc1ccc(OCCNC[C@H](O)COc2cccc3[nH]nc(C)c23)cc1OC` [Compound 55]: the EC50 in series [1] (setting [8]) came out at 35.4 nM. In addition, in series [2], the IC50 was 0.38 nM.
In the case of `O=C(NCCNC[C@H](O)COc1ccc(O)cc1)N1CCOCC1` [(S)-Xamoterol, reference compound], in series [3] (rat primary microglia, LPS 10 ng/ml, compound 10 μM), the “inhibition of LPS-induced TNF-α production” value was “approximately 60%”. In series [4], the “LPS-induced TNF-α response in periphery (plasma)” value is recorded as “markedly inhibited” and the “LPS-induced inflammatory response in the brain (TNF-α, IL-1β, IL-6 gene expression)” value was “attenuated”. The Ki in series [5] is above 10000 nM.
Consider `COc1ccccc1CC(C)NC[C@H](O)COc1cccc2[nH]nc(C)c12` (some centres unmarked) [Compound 72], for which the EC50 in series [1] was 0.8 nM. The IC50 in series [2] stood at 0.009 nM.
As for `N#Cc1cc(OC[C@@H](O)CNCCNC(=O)N2CCOCC2)ccc1O` [Compound 29], the EC50 in series [1] (setting [9]) was in the range of 1 to 10 nM.
Regarding `COCC(C)(C)NC[C@H](O)COc1cccc2[nH]nc(C)c12` [Compound 90], the EC50 in series [1] (setting [8]) turned out to be 3.4 nM. Moreover, in series [2], the IC50 turned out to be 0.019 nM.
For `Cc1n[nH]c2cccc(OC[C@@H](O)CNCCOc3ccccn3)c12` [Compound 87], the EC50 in series [1] (setting [8]) is 5 nM. In addition, the IC50 in series [2] was 0.23 nM.
As for `O=C(NCCNC[C@H](O)COc1ccc(O)cc1)N1CC(O)C1` [Compound 47], the Emax in series [1] (Table 4) stood at 42 ± 2.4%. Also, the EC50 in series [1] (setting [10]) lay within 100 to 1000 nM. For the same molecule, the “concentration-dependent response at the β-arrestin pathway” value in series [6] is “did not produce concentration-dependent response up to 30 μM”.
Regarding `O=C(CCNC[C@H](O)COc1ccc(O)cc1)N1CCOCC1` [Compound 46], in series [1] (Table 4), the Emax came to 73.9 ± 10.2%. Besides, the EC50 in series [1] (setting [10]) fell in the range of 100 to 1000 nM; in series [6] (setting [11]), 10 to 100 nM. Also, in series [6] (Table 4), the “β-arrestin pathway % Iso max” value turned out to be 13.7%.
Taken in the same sequence, the figures for `O=C(CCCNC[C@H](O)COc1ccc(O)cc1)N1CCOCC1` [Compound 45] were 71.9 ± 1.3%, 10 to 100 nM, 100 to 1000 nM and 18.6%.
With `O=C(NCCNC[C@H](O)COc1ccc(O)cc1)N1CC(CO)C1` [Compound 48], the Emax in series [1] (Table 4) came out at 40.1 ± 3.9%. The “concentration-dependent response at the β-arrestin pathway” value in series [6] was “did not produce concentration-dependent response up to 30 μM”.
Regarding `COc1ccc(CCNCC(O)COc2ccc(O)c(O)c2)cc1OC` (centres unmarked) [Compound 50], the “agonistic activity on the ADRB1-mediated cAMP pathway” value in series [1] is on record as “full agonistic activity”. The results for the EC50 in series [1] (setting [10]), in series [6] (setting [11]) and in series [6] (read-out: EC50 at the β-arrestin pathway via ADRB1) were 1 to 10 nM, 10 to 100 nM and 32.2 nM, respectively. The “efficacy at the β-arrestin pathway compared to the full agonist isoproterenol” value in series [6] worked out at 36.5%. Moreover, the “β-arrestin pathway % Iso max” value in series [6] (Table 4) was 36.5%.
Take `CC(C)NCC(O)c1ccc(O)c(O)c1` (centres unmarked) [isoproterenol, reference compound]: the inhibition at 10 µM in series [3] (Rattus norvegicus, Microglia, read-out: inhibition of LPS-induced TNF-α production) stood at 85%. In series [7], the “fibrotic changes in heart and heart weight” value was “induces fibrotic changes in heart and increases heart weight”; the “fibrotic changes in lung and lung weight” value was “induces fibrotic changes in lung and increases lung weight”; the “morphological changes in heart” value is listed as “produces morphological changes in heart”.
With `COc1ccccc1OCCNC[C@H](O)COc1cccc2[nH]nc(C)c12` [Compound 52], in series [1] (setting [8]), the EC50 was 9.2 nM. Besides, the IC50 in series [2] is 0.024 nM.
In the case of `Cc1n[nH]c2cccc(OC[C@@H](O)CNC(C)(C)C)c12` [Compound 75], the EC50 in series [1] (setting [8]) worked out at 3.5 nM. Besides, in series [7], the “fibrotic changes in heart and heart weight” value is listed as “did not induce these changes”; the “fibrotic changes in lung and lung weight” value is listed as “did not induce these changes”; the “morphological changes in heart” value is recorded as “did not induce these changes”. In addition, the IC50 in series [2] turned out to be 0.065 nM.
As for `COc1ccc(CCOCCNC[C@H](O)COc2ccc(O)cc2)cc1OC` [Compound 44], the Emax in series [1] (Table 4) amounted to 60.2 ± 9.9%. The concentration for a half-maximal effect (EC50) in series [1] (setting [10]) and in series [6] (setting [11]) was 100 to 1000 nM in each case. For the same molecule, in series [6] (Table 4), the “β-arrestin pathway % Iso max” value worked out at 14%.
For `Cc1n[nH]c2cccc(OC[C@@H](O)CNCCc3ccccc3C(F)(F)F)c12` [Compound 69], the EC50 in series [1] (setting [8]) was found to be 1 nM. Moreover, the IC50 in series [2] worked out at 0.048 nM.

These data come from patent US11173144B2, “Adrenergic receptor modulating compounds and methods of using the same” (The Board of Trustees of the Leland Stanford Junior …, priority 2016, dated 2021).
